Results taken from patent publication US20130210907A1, “METHOD FOR PREVENTING OR TREATING ENTEROCHROMAFFIN CELL HYPERPLASIA-RELATED DISEASES BY QUERCETIN ADMINISTRATION” (HONG KONG BAPTIST UNIVERSITY, priority 2012, published 2013).

Tests used:
Assay type in all cases: in vivo, rat
[1] = tested on: PI-IBS rats; assay: Mechanical stimuli (CRD)-induced 5-HT release: colonic 5-HT content with or without CRD
Procedure: (§1) 5-HT content in the colon tissue is assayed based on our previously reported procedure in Qi S D, Tian S L, Xu H X, Sung J J, Bian Z X. Quantification of luminally released serotonin in rat proximal colon by capillary electrophoresis with laser-induced fluorescence detection. Anal Bioanal Chem. 2009 April; 393(8):2059-66. Briefly, the colon segment is homogenized in 15% iced trichloroacetic acid; for 2 min and stored at 4° C. for 2 h. After centrifuge at 10,000 G for 15 min, the supernatant of each sample is filtered using 0.22 μm filters and extracted with diethyl ether for five times to remove the trichloroacetic acid. The prepared samples are added to derivatization solution (150 mM sodium tetraborate, 25% acetonitrile, 2 mM CFSE) and incubated for […] in dark at room temperature. The 5-HT content is analyzed by capillary electrophoresis with laser-induced fluorescence detection and expressed as nanogram per milligram (wet weight of tissue).
To determine whether mechanical stimuli (CRD) can induce colonic 5-HT release in PI-IBS rats, and whether Quercetin has effect on it, 5-HT content in colonic tissue is evaluated in rats with or without AWR test. The colon tissues for 5-HT content determination are collected from the rats from Example 1 and Example 2, and the methods for 5-HT content determination are followed as described in Example 2.

[2] = tested on: PI-IBS rats; assay: Abdominal withdrawal reflex (AWR) test: pain threshold pressure to colorectal distension
Procedure: Sprague-Dawley male rats (Laboratory Animal Services Centre, The Chinese University of Hong Kong) aged 6 weeks with body weight around 220 g are used to develop PI-IBS model. Briefly, rats are fasted for 24 h, and deeply anesthetized with chloral hydrate (350 mg.kg^−1, i.p.). After induction of colitis by 2,4,6-trinitrobenzenesulfonic acid solution (TNBS, 5 mg/0.8 ml/rat, in 50% ethanol, 8 cm from anus) administration, the rats are allowed to recover for at least 4 weeks before use. The control rats are similarly administered with 0.8 ml saline instead of TNBS. Only the rats that have completely recovered from the initial inflammation and acquired visceral hypersensitivity are used as the PI-IBS rats.
6 groups of 12 rats are tested. Normal rats (Group 1) are treated with water. PI-IBS rats are randomly divided into 5 groups and orally treated with water (Group 2), Doxantrazole (mast cell stabilizer, 30 mg/kg/d, Group 3), and Quercetin (Group 4-6) at the dose of 5, 10, and 20 mg/kg/d, respectively. After 2 weeks daily drug administration, 5 rats in each group are used to measure pain threshold pressure by abdominal withdrawal reflex (AWR) test, and the remaining […] is used for electromyography (EMG) recording.
AWR test is performed as previously described in Al-Chaer E D, Kawasaki M, Pasricha P J. A new model of chronic visceral hypersensitivity in adult rats induced by colon irritation during postnatal development. Gastroenterology. 2000 November; 119(5):1276-85. Briefly, rats are lightly anesthetized with ether; a latex balloon is inserted into the descending colon. Rats are then allowed to recover for about 1 h. The tube of the balloon is connected via a Y-connector to a sphygmomanometer and colorectal distension is applied in increments of 5 mmHg until a visible contraction of the abdominal wall is observed by an investigator blinded to the treatment. The pain threshold pressure is defined as the intensity of colorectal distension (CRD) that elicited an observable AWR, i.e. a sudden and persistent abdominal muscle contraction with abdomen lift off the platform. The pain threshold pressure of all groups is recorded and repeated five times with intervals of at least 5 minutes for recovery. EMG recording are conducted as previously described in Tammpere A, Brusberg M, Axenborg J, Hirsch I, Larsson H, Lindstrom E. Evaluation of pseudo-affective responses to noxious colorectal distension in rats by manometric recordings. Pain. 2005 August; 116(3):220-6 and Li Z, Zhang X J, Xu H X, Sung J J, Bian Z X. Intracolonical administration of protease-activated receptor-2 agonists produced visceral hyperalgesia by up-regulating serotonin in the colon of rats. Eur J. Pharmacol. 2009 Mar. 15; 606(1-3):199-204. Firstly, a surgical operation is made to implant the electrodes into the left external abdominal oblique muscles 7 days before EMG recording. After the last drug administration, a flexible latex balloon is inserted into the rat descending colon, and the rats are allowed to accommodate for 1 h. CRD is initiated, and the EMG signal is amplified and filtered by Power Lab System. Graded colorectal distension (20, 40, 60, and 80 mmHg; 20 s duration; 2 min inter-stimulus interval) is carried out for total three cycles to each rat. The changes of area under the curve (AUC) are calculated using that during 20 s distension period over the 20 s baseline.

[3] = tested on: PI-IBS rats; assay: Colonic tissue 5-HT content (capillary electrophoresis, laser-induced fluorescence); settings: 30 mg/kg i.g.
Procedure: (§2) Six groups of 5 rats are tested. The groups setting and treatments are as described in Example 1. Different from Example 1, AWR test are not applied to the rats in this experiment in order to obtain the basal data without CRD stimulus. After the last drug administration, a 6 cm proximal colon (1-2 cm from caecum) is collected and divided into 3 parts, the proximal is fixed in 4% paraformaldehyde and embedded in paraffin for EC cell staining; the middle part is collected for 5-HT content measurement and electron microscopic evaluation, and the distal part is for western blotting analysis.
as §1

[4] = tested on: PI-IBS rats; assay: Colonic EC cell counting (silver staining); settings: 30 mg/kg i.g.
Procedure: as §2
Tissue sections (5-μm thick) are deparaffinized and rehydrated for silver staining. Briefly, sections are incubated with 5% ammoniacal silver solution for 4 h at room temperature, then 2 h in 56° C. and subsequently 12 h at room temperature in a dark humidified chamber. After rinsing with water, 5% sodium hyposulfite is added and the tissue sections are incubated for 5 min at room temperature. The brown to black silver precipitate in the cytoplasm of EC cells represents as a positive reaction. A researcher blinded to treatment counted 5 random fields at 200× magnifications for each section, and the number of EC cells per mm^2 of mucosa is quantified using Image J NIH software.

## O=C1c2ccccc2S(=O)(=O)c2cc(-c3nnn[nH]3)ccc21 [Doxantrazole, reference compound]
[1]; 30 mg/kg i.g., after CRD
  5-HT content of tissue, +CRD: 2.62 ± 0.30 ng/mg
[1]; 30 mg/kg i.g., without CRD
  5-HT content of tissue, -CRD: 5.75 ± 0.44^ ng/mg
[1]; 30 mg/kg, p<0.05
  Decrease of colon tissue 5-HT content after CRD application: ~54.4%
[2]; 30 mg/kg i.g. daily, 2 weeks
  Pain threshold pressure, after treatment: 29 ± 1.2 mmHg
[2]; 30 mg/kg i.g. group, before treatment
  Pain threshold pressure, before treatment: 25 ± 1.3 mmHg
[3]
  Effect on colonic 5-HT content in PI-IBS rats: no marked effects
[3]; PI-IBS rats, colon
  5-HT content: 5.75 ± 0.44^ ng/mg
[4]
  Effect on colonic EC cells number in PI-IBS rats: no marked effects
[4]; PI-IBS rats, colon
  EC cell density: 95 ± 10 Number/mm^2
